# Test results from patent US20160213684A1, “SOLID DISPERSION OF A SELECTIVE MODULATOR OF THE PROGESTERONE RECEPTOR” (LABORATOIRE HRA-PHARMA, priority 2012, published 2016).
# Tests used:
# [1] = in vitro dissolution test (paddle dissolution device, hard gelatin capsule with 30 mg UPA); assay type: physicochemical; details: for Percentages of UPA released, expressed relative to the initial amount of UPA contained per capsule: 900 ml medium at gastric pH, 0.1% SDS, 37°C, 50 rpm, mean of 3 experiments
# Procedure: The in vitro dissolution test can be carried out using any commercially available dissolution device comprising paddles. Example 1 hereinafter presents implementing conditions for determining the in vitro dissolution rate of a solid dispersion according to the invention. Briefly, an amount of solid dispersion representing 30 mg of active ingredient is placed in a gelatin capsule. This gel capsule is then placed in 900 ml of a medium buffered at gastric pH, comprising 0.1% of SDS, at 37±0.5° C., and subjected to stirring at 50 revolutions per minute (rpm) (speed of rotation of the paddles of the dissolution device). The dissolution of the active ingredient in the medium can be monitored by spectrophotometry, preferably at the maximum wavelength of absorbance. A gastric pH is typically a pH of 1 to 3.
# For each solid dispersion obtained by means of the “solvent evaporation” method (§1.b) above), hard gelatin capsules containing an amount of solid dispersion corresponding to 30 mg of UPA per capsule were prepared.
# The dissolution profiles were obtained as follows:
# Each capsule containing a solid dispersion was placed in a bowl of the paddle dissolution device containing 900 ml of a dissolution medium. The dissolution medium is an aqueous solution buffered at gastric pH and comprising 0.1% by weight of SDS. The conditions for carrying out the in vitro dissolutions are the following: • Paddle rotation speed: 50 revolutions per minute (rpm); • Temperature: 37° C.±0.5° C.
# The dissolution of the UPA was monitored by spectrophotometry.
# By way of control experiment, a gelatin capsule containing 30 mg of micronized ulipristal acetate was used. For each solid dispersion evaluated, the dissolution experiment was reproduced 3 times.
# [2] = single dose of 30 mg, within 120 hours following unprotected or poorly protected sexual intercourse; cited from earlier work
# uterine fibromas = details: chronic administration, 5 mg or 10 mg per day; cited from earlier work
structure (smiles),measurement,setting,value
"CC(=O)O[C@]1(C(C)=O)CCC2C3CCC4=CC(=O)CCC4=C3[C@@H](c3ccc(N(C)C)cc3)C[C@@]21C (stereo partly drawn) [Micronized UPA, 17α-acetoxy-11β-[4-(N,N-dimethylamino)phenyl]-19-norpregna-4,9-diene-3,20-dione]",percentage of ulipristal acetate released into the medium,"[1]; t=20 min as stated in the text, capsule",approximately 42%
same,"Percentages of UPA released, expressed relative to the initial amount of UPA contained per capsule",[1]; time 0 min,0%
same,"Percentages of UPA released, expressed relative to the initial amount of UPA contained per capsule",[1]; time 1 min,0.23%
same,"Percentages of UPA released, expressed relative to the initial amount of UPA contained per capsule",[1]; time 5 min,5.69%
same,"Percentages of UPA released, expressed relative to the initial amount of UPA contained per capsule",[1]; time 7.5 min,15.28%
same,"Percentages of UPA released, expressed relative to the initial amount of UPA contained per capsule",[1]; time 10 min,21.73%
same,"Percentages of UPA released, expressed relative to the initial amount of UPA contained per capsule",[1]; time 15 min,29.46%
same,"Percentages of UPA released, expressed relative to the initial amount of UPA contained per capsule",[1]; time 20 min,35.2%
same,"Percentages of UPA released, expressed relative to the initial amount of UPA contained per capsule",[1]; time 30 min,42.14%
same,"Percentages of UPA released, expressed relative to the initial amount of UPA contained per capsule",[1]; time 45 min,49.98%
same,"Percentages of UPA released, expressed relative to the initial amount of UPA contained per capsule",[1]; time 60 min,55.62%
same,prevention of unwanted pregnancy,[2],makes it possible to prevent an unwanted pregnancy
same,symptoms associated with uterine fibromas,uterine fibromas,significantly reduce the symptoms associated with uterine fibromas
same,therapeutic benefit versus the reference treatment leuprolide acetate,uterine fibromas,greater than that of the reference treatment
